Data taken from patent US7235715B2, “Virus-resistant transgenic plants expressing L3” (priority 1998, dated 2007).

Assays:
[1] = test system: M1 killer virus; details: cited from earlier work
[2] = test system: programmed −1 ribosomal frameshifting; details: in cells and in in vitro translation extracts (ref. 19); cited from earlier work
[3] = test system: programmed −1 ribosomal frameshifting; assay: Programmed −1 ribosomal frameshifting, lacZ reporter plasmids p−1/p0 in yeast; format: cell-based, Saccharomyces cerevisiae; details: various concentrations, four hours

Row | Compound | loss of the yeast L-A and its satellite dsRNA virus M1 [1] | effect on programmed −1 ribosomal frameshifting efficiencies [2] | effect on programmed −1 ribosomal frameshifting ([3]; mak8-1 strains) | effect on programmed −1 ribosomal frameshifting ([3]; wild-type cells)
1 | COc1ccc(C[C@H]2NC[C@H](O)[C@H]2OC(C)=O)cc1 [anisomycin] | promote loss | alter | neither anisomycin nor sparsomycin had any further effect | altered ribosomal frameshifting
2 | CSC[S@+]([O-])C[C@H](CO)NC(=O)/C=C/c1c(C)[nH]c(=O)[nH]c1=O [sparsomycin] | promote loss | alter | neither anisomycin nor sparsomycin had any further effect | altered ribosomal frameshifting
